Reference: patent publication US20230126447A1, “OCULAR DRUG DEPOT FOR COMPLEMENT-MEDIATED DISORDERS” (priority 2020, published 2023)
Read-outs that look alike come from different tables or passages of the source.

Assay: Ocular tissue and plasma pharmacokinetics, 15 mg/kg single and BID oral, Dutch Belted rabbits (Example 3/5)
Format: in vivo
Details: for concentration at 0 h: Day 15, 0 h
Procedure: Study design including group designation and dose levels are outlined in Table 4. […] Fifteen Dutch Belted and 5 New Zealand White rabbits were used as un-dosed controls. […] The dose volume was 5 mL/kg/dose for all groups. Safety was assessed with toxicological and ophthalmic examinations including slit lamp biomicroscopy, indirect ophthalmoscopy, rebound tonometry, and ultrasonic corneal pachymetry.
Analyst® software (Version 1.6.2) was used to capture the LC-MS/MS data and integrate the peak areas. Calibration standards and QCs were prepared in a blank solution of 75%:25% acetonitrile:water (v:v), ranging from 10 ng/mL to 10,000 ng/mL. Matrix matched standard and QC samples were prepared by mixing 2 μL of standard or QC sample above with 18 μL of appropriate ocular tissue or plasma. The final calibration standards ranged from 1 ng/mL to 1000 ng/mL. All plasma, retina, choroid-RPE, optic nerve, and vitreous humor samples were analyzed in a single run. Iris-ciliary body samples were analyzed in two runs due to a need for sample dilution. […] Dilution QCs were prepared at 5000 ng/mL where appropriate. Two sets of standards were used to bracket the analytical run at the beginning and end of the run. Three sets of QCs were included the analytical runs. All concentrations in ocular matrices are reported as ng/g based on the assumed density of 1 g/mL.
1, 6, 24, 96, 168, and 240 hours post-dose on Day 15, with the eyes collected at the same time as blood sampling. A single blood sample was taken from Groups 4 and 5 at sacrifice. Plasma, vitreous humor (VH), retina, choroid-retina pigmented epithelium (Choroid-RPE), optic nerve (ON), and iris-ciliary body (I-CB) were analyzed by LC-MS/MS to quantify test article concentrations. The lower limit of quantitation (LLOQ) in plasma and vitreous humor was 1.0 ng/mL. The LLOQ was 6.0 ng/g in retina, Choroid-RPE, and I-CB and the optic nerve LLOQ was 15 ng/g, assuming tissue density of 1 g/mL where relevant.
Study design including group designation and dose levels are outlined in Table 18.

[1] = Dutch Belted, rabbit, vitreous humor, po, 15 mg/kg, Vitreous Humor, DB rabbit, 15 mg/kg BID, Day 15
[2] = Dutch Belted, rabbit, vitreous humor, po, 15 mg/kg, Vitreous Humor, DB rabbit, 15 mg/kg single dose, Day 1
[3] = plasma, DB rabbit, 15 mg/kg BID, Day 15
[4] = plasma, DB rabbit, 15 mg/kg single dose, Day 1
[5] = retina, DB rabbit, 15 mg/kg BID, Day 15
[6] = retina, DB rabbit, 15 mg/kg single dose, Day 1

SMILES: CC(=O)c1nn(CC(=O)N2C[C@H](F)C[C@H]2C(=O)Nc2cccc(Br)n2)c2ccc(-c3cnc(C)nc3)cc12 [Compound 1, (2S,4R)-1-(2-(3-Acetyl-5-(2-methylpyrimidin-5-yl)-1H-indazol-1-yl)acetyl)-N-(6-bromopyridin-2-yl)-4-fluoropyrrolidine-2-carboxamide]
- concentration at 0 h (Dutch Belted, rabbit, retina, po, 15 mg/kg, DB rabbit, 15 mg/kg BID oral, read-out: Mean retina concentration): 114 ng/g
- concentration at 1 h (Dutch Belted, rabbit, retina, po, 15 mg/kg, DB rabbit, 15 mg/kg BID oral, Day 15, 1 h, read-out: Mean retina concentration): 576 ng/g
- concentration at 6 h (Dutch Belted, rabbit, retina, po, 15 mg/kg, DB rabbit, 15 mg/kg BID oral, Day 15, 6 h, read-out: Mean retina concentration): 237 ng/g
- concentration at 24 h (Dutch Belted, rabbit, retina, po, 15 mg/kg, DB rabbit, 15 mg/kg BID oral, Day 15, 24 h, read-out: Mean retina concentration): 74.3 ng/g
- concentration at 96 h (Dutch Belted, rabbit, retina, po, 15 mg/kg, DB rabbit, 15 mg/kg BID oral, Day 15, 96 h, read-out: Mean retina concentration): 28.1 ng/g
- concentration at 168 h (Dutch Belted, rabbit, retina, po, 15 mg/kg, DB rabbit, 15 mg/kg BID oral, Day 15, 168 h, read-out: Mean retina concentration): 36.5 ng/g
- concentration at 240 h (Dutch Belted, rabbit, retina, po, 15 mg/kg, DB rabbit, 15 mg/kg BID oral, Day 15, 240 h, read-out: Mean retina concentration): 25.3 ng/g
- concentration at 1 h (Dutch Belted, rabbit, retina, po, 15 mg/kg, DB rabbit, 15 mg/kg single oral dose, Day 1, 1 h, read-out: Mean retina concentration): 145 ng/g
- concentration at 6 h (Dutch Belted, rabbit, retina, po, 15 mg/kg, DB rabbit, 15 mg/kg single oral dose, Day 1, 6 h, read-out: Mean retina concentration): 29.6 ng/g
- concentration at 24 h (Dutch Belted, rabbit, retina, po, 15 mg/kg, DB rabbit, 15 mg/kg single oral dose, Day 1, 24 h, read-out: Mean retina concentration): 24.7 ng/g
- MRT last (Dutch Belted, rabbit, retina, po, 15 mg/kg, retina, DB rabbit, 15 mg/kg BID, Day 15): 71 h
- concentration at 0 h (Dutch Belted, rabbit, vitreous humor, po, 15 mg/kg, DB rabbit, 15 mg/kg BID oral, read-out: Mean Vitreous Humor concentration): 3.27 ng/mL
- concentration at 1 h (Dutch Belted, rabbit, vitreous humor, po, 15 mg/kg, DB rabbit, 15 mg/kg BID oral, Day 15, 1 h, read-out: Mean Vitreous Humor concentration): 15.4 ng/mL
- concentration at 6 h (Dutch Belted, rabbit, vitreous humor, po, 15 mg/kg, DB rabbit, 15 mg/kg BID oral, Day 15, 6 h, read-out: Mean Vitreous Humor concentration): 6.45 ng/mL
- concentration at 1 h (Dutch Belted, rabbit, vitreous humor, po, 15 mg/kg, DB rabbit, 15 mg/kg single oral dose, Day 1, 1 h, read-out: Mean Vitreous Humor concentration): 7.26 ng/mL
- concentration at 6 h (Dutch Belted, rabbit, vitreous humor, po, 15 mg/kg, DB rabbit, 15 mg/kg single oral dose, Day 1, 6 h, read-out: Mean Vitreous Humor concentration): 3.66 ng/mL
- AUC(0-t) [1]: 64 ng·h/mL
- MRT last [1]: 2.23 h
- Cmax (Dutch Belted, rabbit, vitreous humor, po, 15 mg/kg, Vitreous Humor, DB rabbit, 15 mg/kg BID, Day 15, read-out: Cmax): 15.4 ng/mL
- AUC(0-t) [2]: 30.9 ng·h/mL
- MRT last [2]: 2.48 h
- Cmax (Dutch Belted, rabbit, vitreous humor, po, 15 mg/kg, Vitreous Humor, DB rabbit, 15 mg/kg single dose, Day 1, read-out: Cmax): 7.26 ng/mL
- Tlast (Iris-Ciliary Body, DB rabbit, 15 mg/kg BID, Day 15): 240 h
- Tlast (Iris-Ciliary Body, DB rabbit, 15 mg/kg single dose, Day 1): 240 h
- Tlast (Vitreous Humor, DB rabbit, 15 mg/kg BID, Day 15): 6 h
- Tlast (Vitreous Humor, DB rabbit, 15 mg/kg single dose, Day 1): 6 h
- AUClast [3]: 3990 ng·h/mL
- Cmax [3]: 845 ng/mL
- MRTlast [3]: 6.51 h
- Tlast [3]: 96 h
- AUClast [4]: 1570 ng·h/mL
- Cmax [4]: 318 ng/mL
- MRTlast [4]: 5.58 h
- Tlast [4]: 24 h
- C-RPE drug concentration at least 10 days following the last oral administration (rabbit, 15 mg/kg BID): 340 ng/mL
- Cmax [5]: 576 ng/m
- Tlast [5]: 240 h
- Cmax [6]: 145 ng/m
- MRTlast [6]: 7.83 h
- Tlast [6]: 24 h
